Entries after “also recorded” stand apart in the source; their conditions may differ. Blank lines part the entries; values can stand above or below the molecule they belong to.
Tests used:
[1] = test system: mutant MBTPS1 transcripts; test: Nonsense-mediated mRNA decay test in parental immortalized B cells; type: cell-based, human; details: cycloheximide 100 μM, 6 hours
Method: (§1) Gene expression analyses with qPCR. Gene expression levels in the patient and irrelevant healthy control immortalized B cells or immortalized fibroblasts were analyzed by qPCR using primers listed in Supplemental Table 3. Total RNA extracted from the cells using Trizol was converted to cDNA using the M-MLV Reverse Transcriptase system. PCR analysis of cDNA was performed with the SYBR Green qPCR system using a CFX96 Real-time system instrument (Bio-Rad). To test for NMD, treatment with cycloheximide (100 μM) was performed by incubating patient's parental immortalized B cells for 6 hours, and then transcripts were analyzed by direct sequencing.

MBTPS1 transcripts = test: MBTPS1 transcript analysis (qRT-PCR and cloning of exon 9 cDNA) in fibroblasts treated with AMO; type: cell-based, human
Method: as §1
AMO. The AMO (5′-AGAAAAGCGGGCGATGTTAcCTTCA-3′ [the lowercase “c” represents the mutated base compared to healthy control]) against exon 9 in the maternal mutant transcript containing cryptic splice donor site was designed (Gene Tools Inc.) (38). Forty thousand fibroblasts were seeded onto a 24-well plate. Introduction of AMO (10 μM) in maternal and patient fibroblasts was carried out using the Endo-Porter (6 μM) peptide delivery system (Gene Tools Inc.). After 12, 24, and 48 hours, RNA was extracted for quantitative RT-PCR as well as cloning of MBTPS1 cDNA. The following primer pair was used to quantify a MBTPS1 transcript with 41-bp deletion in exon 9: forward primer targeting the boundary exons 7 and 8, 5′-[…]-3′; reverse primer targeting exon 10, 5′-CTGG-TAGCTCCTTCAAAGTC-3′.

BBF2H7 = test: Western blotting of endogenous BBF2H7 cleavage in AMO-treated patient fibroblasts; type: cell-based, human; details: AMO vs control oligo
Method: (§2) Western blotting. Protein extracts from cultured cells or tissues were prepared using a 1% Triton X-100-based cell lysis buffer. Lysates were applied to an 8%-12% SDS-PAGE gel. Separated proteins were transferred onto an Immobilon-P membrane (Millipore). After blots were blocked, the membranes were incubated with antibodies and were then developed with ECL systems. Exposed X-ray films were scanned and analyzed with ImageJ software (NIH). For protein extraction from cartilage from mouse ribs, proteins from frozen tissues were extracted into 8 M urea lysis buffer using Bead-beater (34) (Biospec Products Inc.). For detecting endogenous GPT in immortalized B cells, 1.5×10^7 cells were suspended in hypotonic lysis buffer and then ultrasonicated for 30 seconds. After removing debris by spinning at 1,000 g for 3 minutes, supernatant was further ultracentrifuged at 100,000 g for 2 hours. The membrane fractions were solubilized with 3% Triton X-100-containing lysis buffer, 150 μg protein was analyzed by Western blotting.
AMO. […] After 12, 24, and 48 hours, RNA was extracted for quantitative RT-PCR as well as cloning of MBTPS1 cDNA. The following primer pair was used to quantify a MBTPS1 transcript with 41-bp deletion in exon 9: forward primer targeting the boundary exons 7 and 8, 5′-[…]-3′; reverse primer targeting exon 10, 5′-CTGG-TAGCTCCTTCAAAGTC-3′.

[2] = test system: UPR- and COP-II-related genes; test: qRT-PCR of UPR- and COP-II-related genes in patient fibroblasts after AMO; type: cell-based, human; details: patient fibroblasts treated with AMO
Method: as §1
AMO. The AMO (5′-AGAAAAGCGGGCGATGTTAcCTTCA-3′ [the lowercase “c” represents the mutated base compared to healthy control]) against exon 9 in the maternal mutant transcript containing cryptic splice donor site was designed (Gene Tools Inc.) (38). Forty thousand fibroblasts were seeded onto a 24-well plate. […] After 12, 24, and 48 hours, RNA was extracted for quantitative RT-PCR as well as cloning of MBTPS1 cDNA. The following primer pair was used to quantify a MBTPS1 transcript with 41-bp deletion in exon 9: forward primer targeting the boundary exons 7 and 8, 5′-[…]-3′; reverse primer targeting exon 10, 5′-CTGG-TAGCTCCTTCAAAGTC-3′.

patient fibroblasts = test: Secreted procollagen I ELISA of fibroblast supernatant; type: cell-based, human
Method: Measurement of secreted procollagen I. Supernatant from cultured fibroblasts was collected at 48 hours after treatment with AMO and was then diluted 500-fold with PBS (39). Secreted procollagen 1a in diluted samples was measured with an ELISA kit according to the manufacturer's instructions (R&D Systems).

[3] = Growth hormone replacement therapy in the patient; type: in vivo, human; details: started, discontinued after 1 year
[4] = test system: maternal and patient fibroblasts; test: Lysosomal enzyme secretion and lysosome morphology in fibroblasts treated with S1P inhibitor; type: cell-based, human; details: maternal and patient fibroblasts treated with PF-429242
Tango1 and Hsp47 = test: Western blotting of Sec23a, Tango1 and Hsp47 in fibroblasts; type: cell-based, human; details: patient fibroblasts treated with S1P inhibitor
Method: as §2

Molecule: C[C@@H]1C[C@@H]([C@H](O)CC2CC(=O)NC(=O)C2)C(=O)[C@@H](C)C1 [cycloheximide]
- mutant MBTPS1 transcripts (NMD inhibition) [1]: stabilized

Molecule: AMO: Antisense morpholino oligo 5′-AGAAAAGCGGGCGATGTTAcCTTCA-3′ against exon 9 cryptic splice donor site in the maternal mutant MBTPS1 transcript (antisense AGAAAAGCGGGCGATGTTACCTTCA; all phosphorodiamidate morpholino (PMO))
- 41-bp-deleted pathogenic splice variant (MBTPS1 transcripts; patient cells, compared with control oligo): substantial decrease
- increase of total MBTPS1 expression (MBTPS1 transcripts; patient fibroblasts treated with AMO, data not shown): 10 fold
- increase in properly spliced MBTPS1 transcripts (MBTPS1 transcripts; patient fibroblasts, AMO 10 μM, compared with control oligo): 20 fold
- increase in correctly spliced transcript (cloned exon 9 of MBTPS1 cDNA) (MBTPS1 transcripts; patient fibroblasts, compared with control oligo treatment): 2 fold
- increase of absolute maternal transcript with a missense mutation (p.D365G) (MBTPS1 transcripts; patient fibroblasts, compared with control oligo-treated cells): 20 fold
- S1P-dependent activation (cleavage) of BBF2H7 (BBF2H7): improved cleavage; also recorded: increased
- expression of UPR- and COP-II-related genes [2]: increased
- secretion of collagen I (secreted procollagen I) (patient fibroblasts; patient fibroblasts, 48 hours after AMO): increased

Molecule: Human growth hormone: Human growth hormone replacement therapy given to the patient
- clinical response (growth) [3]: limited response

- secretion of lysosomal enzymes [4]: elevated
Molecule: PF-429242
- collagen I secretion (patient fibroblasts; patient fibroblasts treated with S1P inhibitor): impaired
- lysosome size [4]: lysosomal hypertrophy
- Tango1 and Hsp47 protein (Tango1 and Hsp47): further decreased
